Source: paper PMC5131891, “Structural Insights into Streptococcal Competence Regulation by the Cell-to-Cell Communication System ComRS” (PLoS Pathogens, 2016)
Substitutions are numbered along the chain they refer to. Several values for one entry are separate records, joined by “and”; a condition that tells them apart may be missing. Equal entries are not always repeated. Peptide text beside a SMILES is read from it.

T1: ComR E146A/D147A (Streptococcus thermophilus LMD-9, UniProt PDB:5JUB_1 1-310, E146A;D147A)
T1 sequence: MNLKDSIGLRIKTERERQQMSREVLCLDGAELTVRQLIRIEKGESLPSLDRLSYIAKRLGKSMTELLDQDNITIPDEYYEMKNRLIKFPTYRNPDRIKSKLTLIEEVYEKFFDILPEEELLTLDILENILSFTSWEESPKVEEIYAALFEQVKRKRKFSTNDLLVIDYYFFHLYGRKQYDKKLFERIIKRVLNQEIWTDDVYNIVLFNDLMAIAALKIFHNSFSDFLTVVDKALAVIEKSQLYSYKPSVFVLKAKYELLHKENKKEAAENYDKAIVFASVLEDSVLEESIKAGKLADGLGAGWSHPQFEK

T2: ComR K87A/K246A (Streptococcus thermophilus LMD-9, UniProt PDB:5JUB_1 1-310, K87A;K246A)
T2 sequence: T1 sequence with K87A, A146E, A147D, K246A

T3: ComR WT (Streptococcus thermophilus LMD-9, UniProt PDB:5JUB_1 1-310)
T3 sequence: T1 sequence with A146E, A147D

B1: Cy3-boxPster_1655 wt (40 bp) (dsDNA)
DNA 1: CAAAATCGAGTAGTGACATTTATGTCACTACTTTTTTGTT
DNA 2: AACAAAAAAGTAGTGACATAAATGTCACTACTCGATTTTG

What was measured:
ComR K100A = ComR K100A (Streptococcus thermophilus, UniProt A0A1L1QK15, K100A); assay: ITC, XIP binding on ComR K100A; design: species or system Streptococcus thermophilus LMD-9
Method: (§1) Purification of ComR-StreptagII proteins (StreptagII at C-terminus) was performed as described previously with some modifications. E. coli strain BL21 Gold cultures were grown in 2YT medium at 15°C until an OD600 of ~ 0.5, cooled down on ice for 10 minutes, and induced by addition of 0.2% of L-arabinose (wt vol^-1) before continuous shaking at 28°C for 4 h. Cells were then harvested by centrifugation (5,000 × g during 15 min at 8°C). The pellets were resuspended in cold buffer W (100 mM Tris-HCl pH 8.0, 150 mM NaCl, 1 mM EDTA) supplemented with 0.5 mg ml^−1 of lysozyme, incubated for 30 min at 4°C, and sonicated at 4°C. […] Their purity was visualized by SDS-PAGE and their concentrations were measured using a Nanodrop apparatus (protein A280 method) (ThermoFisher Scientific).
(§2) Isothermal titration calorimetry (ITC) experiments were performed at 20°C in 20 mM Tris-HCl pH 8.0, 150 mM NaCl, 1 mM EDTA with an ITC200 calorimeter (Microcal). […] The peptide concentration used in the calculations is based on the weight of the lyophilized peptide and is therefore inaccurate because there may be a significant quantity of bound water, and salts or counter ions. However, the calculated number of binding sites, n, is always close to 1, in agreement with the 1:1 ratio observed in the crystal structure of the ternary complex. […] The calculated KD are therefore apparent values.

ComR K87A/K246A [1] = biological target: ComR K87A/K246A (Streptococcus thermophilus, UniProt A0A1L1QK15, K87A/K246A); assay: ITC, XIP binding on ComR K87A/K246A; design: species or system Streptococcus thermophilus LMD-9; details: ITC, ComR K87A/K246A
Method: as §1, §2

ComR K87A/K246A [2] = biological target: ComR K87A/K246A (Streptococcus thermophilus, UniProt A0A1L1QK15, K246A/K87A); assay: ITC, XIP binding on ComR K87A/K246A; design: species or system Streptococcus thermophilus LMD-9
Method: as §1, §2

ComR T90A = ComR T90A (Streptococcus thermophilus, UniProt A0A1L1QK15, T90A); assay: ITC, XIP binding on ComR T90A; design: species or system Streptococcus thermophilus LMD-9
Method: as §1, §2

ComR WT [3] = biological target: ComR WT (Streptococcus thermophilus, UniProt A0A1L1QK15); assay: biochemical; type: binding, Streptococcus thermophilus LMD-9; details: KD
Method: Purification of ComR-StreptagII proteins (StreptagII at C-terminus) was performed as described previously with some modifications. E. coli strain BL21 Gold cultures were grown in 2YT medium at 15°C until an OD600 of ~ 0.5, cooled down on ice for 10 minutes, and induced by addition of 0.2% of L-arabinose (wt vol^-1) before continuous shaking at 28°C for 4 h. Cells were then harvested by centrifugation (5,000 × g during 15 min at 8°C). The pellets were resuspended in cold buffer W (100 mM Tris-HCl pH 8.0, 150 mM NaCl, 1 mM EDTA) supplemented with 0.5 mg ml^−1 of lysozyme, incubated for 30 min at 4°C, and sonicated at 4°C. […] For structural and biophysical analyses, the purification protocol was completed by a size exclusion chromatography step using a HiLoad 16/600 Superdex 75 prep grade column (GE Healthcare) equilibrated in buffer W plus 10% (vol vol^-1) glycerol. Purified proteins were aliquoted, flash frozen and conserved at -20°C. Their purity was visualized by SDS-PAGE and their concentrations were measured using a Nanodrop apparatus (protein A280 method) (ThermoFisher Scientific).
Isothermal titration calorimetry (ITC) experiments were performed at 20°C in 20 mM Tris-HCl pH 8.0, 150 mM NaCl, 1 mM EDTA with an ITC200 calorimeter (Microcal). The protein concentration in the microcalorimeter cell and the peptide concentration in the syringe were set at 50 μM and 500 μM, respectively. A first injection of 0.4 μl, which was not taken into account for the fitting, was followed by 20 injections of 2 μl at intervals of 180 s. The peptide concentration used in the calculations is based on the weight of the lyophilized peptide and is therefore inaccurate because there may be a significant quantity of bound water, and salts or counter ions. However, the calculated number of binding sites, n, is always close to 1, in agreement with the 1:1 ratio observed in the crystal structure of the ternary complex. […] The data were analyzed using the MicroCal Origin software provided by the manufacturer. […] It was therefore not possible to distinguish the two events and the fitting was performed with the one-binding-site model. The calculated KD are therefore apparent values.

ComR R92A = ComR R92A (Streptococcus thermophilus, UniProt A0A1L1QK15, R92A); assay: ITC, XIP binding on ComR R92A; design: species or system Streptococcus thermophilus LMD-9
Method: as §1, §2

ComR Y91A = ComR Y91A (Streptococcus thermophilus, UniProt A0A1L1QK15, Y91A); assay: ITC, XIP binding on ComR Y91A; design: species or system Streptococcus thermophilus LMD-9
Method: as §1, §2

ComR F171A/Y174A = ComR F171A/Y174A (Streptococcus thermophilus, UniProt A0A1L1QK15, F171A/Y174A); assay: ITC, XIP binding on ComR F171A/Y174A; design: species or system Streptococcus thermophilus LMD-9
Method: as §1, §2

[4] = compared with heptapeptide 18–24; ref [30]; cited from earlier work
Method: The corresponding synthetic XIP peptide […] as well as the variants used in the functional analysis were supplied by GenScript or Peptide 2.0 (Chantilly, VA) and resuspended at a concentration of 50 mM in 50% DMSO / 50% protein stora ...

ComR E146A/D147A = biological target: T1, ComR E146A/D147A; assay: EMSA; no XIP; ComR 4 uM; strong, multimeric complexes; EMSA: 20 mM Tris-HCl pH 8.0, 150 mM NaCl, 1 mM EDTA, 10% glycerol, 1 mg/ml BSA, 37 C 10 min, 40 ng DNA in 20 ul; crystal: 30% PEG 550 MME, 0.1 M MgCl2, 0.05 M Tris-HCl pH 8.5, 18 C; details: protein: recombinant; tags: C-terminal StreptagII; chain copies: 2; label: Cy3 (Methods: Alexa 555), direct strand; blunt
ComR K87A/K246A [5] = biological target: T2, ComR K87A/K246A; assay: EMSA; XIP up to 1.2 uM; ComR 4 uM; EMSA: 20 mM Tris-HCl pH 8.0, 150 mM NaCl, 1 mM EDTA, 10% glycerol, 1 mg/ml BSA, 37 C 10 min, 40 ng DNA in 20 ul; crystal: 30% PEG 550 MME, 0.1 M MgCl2, 0.05 M Tris-HCl pH 8.5, 18 C; details: protein: recombinant; tags: C-terminal StreptagII; chain copies: 2; label: Cy3 (Methods: Alexa 555), direct strand; blunt
ComR WT [6] = biological target: T3, ComR WT; assay: EMSA; XIP 0.2-1.2 uM; ComR 4 uM; EMSA: 20 mM Tris-HCl pH 8.0, 150 mM NaCl, 1 mM EDTA, 10% glycerol, 1 mg/ml BSA, 37 C 10 min, 40 ng DNA in 20 ul; crystal: 30% PEG 550 MME, 0.1 M MgCl2, 0.05 M Tris-HCl pH 8.5, 18 C; details: protein: recombinant; tags: C-terminal StreptagII; chain copies: 2; label: Cy3 (Methods: Alexa 555), direct strand; blunt

Chain of ComR R92A (A0A1L1QK15 entry or part of it R92A): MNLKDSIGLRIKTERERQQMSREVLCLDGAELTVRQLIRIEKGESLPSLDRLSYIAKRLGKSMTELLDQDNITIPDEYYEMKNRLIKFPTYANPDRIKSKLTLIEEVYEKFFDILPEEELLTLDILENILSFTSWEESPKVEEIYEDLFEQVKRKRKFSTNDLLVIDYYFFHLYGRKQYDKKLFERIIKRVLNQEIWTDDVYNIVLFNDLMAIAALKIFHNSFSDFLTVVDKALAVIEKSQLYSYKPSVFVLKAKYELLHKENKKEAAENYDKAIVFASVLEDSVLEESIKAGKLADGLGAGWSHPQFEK
Chain of ComR Y91A (A0A1L1QK15 entry or part of it Y91A): as the sequence (A0A1L1QK15 entry or part of it R92A) above, with Y91A, A92R counted along it
Chain of ComR WT (Streptococcus thermophilus, UniProt A0A1L1QK15) (A0A1L1QK15 entry or part of it): as the sequence (A0A1L1QK15 entry or part of it R92A) above, with A92R counted along it
Chain of ComR F171A/Y174A (A0A1L1QK15 entry or part of it F171A/Y174A): as the sequence (A0A1L1QK15 entry or part of it R92A) above, with A92R, F171A, Y174A counted along it
Chain of ComR T90A (A0A1L1QK15 entry or part of it T90A): as the sequence (A0A1L1QK15 entry or part of it R92A) above, with T90A, A92R counted along it
Chain of ComR K100A (A0A1L1QK15 entry or part of it K100A): as the sequence (A0A1L1QK15 entry or part of it R92A) above, with A92R, K100A counted along it
Chain of ComR K87A/K246A (Streptococcus thermophilus, UniProt A0A1L1QK15, K246A/K87A) (A0A1L1QK15 entry or part of it K87A/K246A): as the sequence (A0A1L1QK15 entry or part of it R92A) above, with K87A, A92R, K246A counted along it
Chain of ComR K87A/K246A (Streptococcus thermophilus, UniProt A0A1L1QK15, K87A/K246A) (A0A1L1QK15 entry or part of it K87A/K246A): as the sequence (A0A1L1QK15 entry or part of it R92A) above, with K87A, A92R, K246A counted along it

Row | Molecule | Kd (ComR K100A) | affinity in words (ComR K87A/K246A [1]) | Kd (ComR K87A/K246A [2]) | Kd (ComR T90A) | Kd (ComR WT [3]) | Kd (ComR R92A) | affinity in words (ComR R92A; ITC, ComR R92A) | Kd (ComR Y91A) | KD value in words (ComR Y91A; ITC, ComR Y91A) | Kd (ComR F171A/Y174A) | stability [4] | binding result (ComR E146A/D147A) | binding result (ComR K87A/K246A [5]) | binding result (ComR WT [6])
1 | CC(C)C[C@H](NC(=O)[C@H](CS)NC(=O)CNC(=O)[C@H](C)NC(=O)[C@H](Cc1ccccc1)NC(=O)[C@H](Cc1ccc(O)cc1)NC(=O)[C@@H]1CCCN1C(=O)[C@@H](N)CC(C)C)C(=O)O [XIP] (H-LPYFAGCL-OH) | 1170 ± 245 nM | did not affect the affinity of ComR for the XIP peptide | 9 ± 3 nM | 244 ± 108 nM | 10 nM and 8 nM | 277 ± 23 nM | decreased affinity for XIP | 141 ± 33 nM | same order of magnitude than observed with T90A mutant | 87 ± 9 nM | more stable |  |  | 
2 | B1 |  |  |  |  |  |  |  |  |  |  |  | binds | no binding | binds
